Results: ChEMBL document CHEMBL3808378, “Enantioselective syntheses of both enantiomers of 9'-dehydroxyimperanene and 7,8-dihydro-9'-dehydroxyimperanene and the comparison of biological activity between 9-norlignans and dihydroguaiaretic acids” (Bioorg Med Chem Lett, 2016)
≈ marks a conversion by molar mass, not a printed value.

System: Bacillus subtilis
Experiment: Antibacterial activity against Bacillus subtilis subsp. subtilis NBRC 13719 after 24 hrs by 2 fold dilution method
Type: functional
Conditions: NBRC 13719, 24 h

Compound | MIC [µM]
COc1cc(CC[C@H](C)Cc2ccc(O)c(OC)c2)ccc1O | 3130 (≈ 990 µg/mL)
COc1cc(CC[C@@H](C)Cc2ccc(O)c(OC)c2)ccc1O | 3130 (≈ 990 µg/mL)
COc1cc(/C=C/[C@H](C)Cc2ccc(O)c(OC)c2)ccc1O | 6250 (≈ 1960 µg/mL)
COc1cc(/C=C/[C@@H](C)Cc2ccc(O)c(OC)c2)ccc1O | 6250 (≈ 1960 µg/mL)
COc1cc(C[C@H](C)[C@@H](C)Cc2ccc(O)c(OC)c2)ccc1O | 1560 (≈ 515 µg/mL)
COc1cc(C[C@@H](C)[C@H](C)Cc2ccc(O)c(OC)c2)ccc1O [(-)-DIHYDROGUAIARETICACID] | 1560 (≈ 515 µg/mL)
COc1cc(C[C@@H](C)[C@@H](C)Cc2ccc(O)c(OC)c2)ccc1O [MESODIHYDROGUAIARETIC ACID] | 1560 (≈ 515 µg/mL)

System: Culex pipiens
Experiment: Antilarvicidal activity against Culex pipiens larvae after 24 hrs
Type: functional
Conditions: not given

Compound | LD50 [×10⁻⁵ M]
COc1cc(CC[C@H](C)Cc2ccc(O)c(OC)c2)ccc1O | 9.67
COc1cc(CC[C@@H](C)Cc2ccc(O)c(OC)c2)ccc1O | 9.9
COc1cc(/C=C/[C@H](C)Cc2ccc(O)c(OC)c2)ccc1O | 11
COc1cc(/C=C/[C@@H](C)Cc2ccc(O)c(OC)c2)ccc1O | 48
COc1cc(C[C@H](C)[C@@H](C)Cc2ccc(O)c(OC)c2)ccc1O | 4.03
COc1cc(C[C@@H](C)[C@H](C)Cc2ccc(O)c(OC)c2)ccc1O [(-)-DIHYDROGUAIARETICACID] | 3.52
COc1cc(C[C@@H](C)[C@@H](C)Cc2ccc(O)c(OC)c2)ccc1O [MESODIHYDROGUAIARETIC ACID] | 5.12

System: not listed separately
Experiment: Cytotoxicity against human HL60 cells assessed as reduction in cell viability after 48 hrs by WST-8 reduction assay
Type: functional, cell-based
Conditions: HL-60, 48 h

Compound | IC50 [µM]
COc1cc(CC[C@H](C)Cc2ccc(O)c(OC)c2)ccc1O | 5.6
COc1cc(CC[C@@H](C)Cc2ccc(O)c(OC)c2)ccc1O | 12
COc1cc(/C=C/[C@H](C)Cc2ccc(O)c(OC)c2)ccc1O | 14
COc1cc(/C=C/[C@@H](C)Cc2ccc(O)c(OC)c2)ccc1O | 21
COc1cc(C[C@H](C)[C@@H](C)Cc2ccc(O)c(OC)c2)ccc1O | 32
COc1cc(C[C@@H](C)[C@H](C)Cc2ccc(O)c(OC)c2)ccc1O [(-)-DIHYDROGUAIARETICACID] | 22
COc1cc(C[C@@H](C)[C@@H](C)Cc2ccc(O)c(OC)c2)ccc1O [MESODIHYDROGUAIARETIC ACID] | 41

System: Fusarium solani
Experiment: Antifungal activity against Fusarium solani assessed as mycelial colony growth levels at 0.25 mM after 3 days by caliper analysis
Type: functional
Conditions: not given

Compound | Activity [%]
COc1cc(CC[C@H](C)Cc2ccc(O)c(OC)c2)ccc1O | 95.4
COc1cc(CC[C@@H](C)Cc2ccc(O)c(OC)c2)ccc1O | 70.1
COc1cc(/C=C/[C@H](C)Cc2ccc(O)c(OC)c2)ccc1O | 95.7
COc1cc(/C=C/[C@@H](C)Cc2ccc(O)c(OC)c2)ccc1O | 96.1
COc1cc(C[C@H](C)[C@@H](C)Cc2ccc(O)c(OC)c2)ccc1O | 34.5
COc1cc(C[C@@H](C)[C@H](C)Cc2ccc(O)c(OC)c2)ccc1O [(-)-DIHYDROGUAIARETICACID] | 36.5
COc1cc(C[C@@H](C)[C@@H](C)Cc2ccc(O)c(OC)c2)ccc1O [MESODIHYDROGUAIARETIC ACID] | 45.8

System: HeLa
Experiment: Cytotoxicity against human HeLa cells assessed as reduction in cell viability after 48 hrs by WST-8 reduction assay
Type: functional, cell-based
Conditions: not given

Compound | IC50 [µM]
COc1cc(CC[C@H](C)Cc2ccc(O)c(OC)c2)ccc1O | 6.1
COc1cc(CC[C@@H](C)Cc2ccc(O)c(OC)c2)ccc1O | 21
COc1cc(/C=C/[C@H](C)Cc2ccc(O)c(OC)c2)ccc1O | 18
COc1cc(/C=C/[C@@H](C)Cc2ccc(O)c(OC)c2)ccc1O | 19
COc1cc(C[C@H](C)[C@@H](C)Cc2ccc(O)c(OC)c2)ccc1O | 24
COc1cc(C[C@@H](C)[C@H](C)Cc2ccc(O)c(OC)c2)ccc1O [(-)-DIHYDROGUAIARETICACID] | 26
COc1cc(C[C@@H](C)[C@@H](C)Cc2ccc(O)c(OC)c2)ccc1O [MESODIHYDROGUAIARETIC ACID] | 28

System: not listed separately
Experiment: Selectivity index, ratio of IC50 for fall armyworm sf9 cells to IC50 for Cytotoxicity against human HeLa cells
Type: toxicity, cell-based
Conditions: fall armyworm and human, read-out: Ratio IC50

Compound | selectivity ratio
COc1cc(CC[C@H](C)Cc2ccc(O)c(OC)c2)ccc1O | 2
COc1cc(C[C@H](C)[C@@H](C)Cc2ccc(O)c(OC)c2)ccc1O | 1.3
COc1cc(C[C@@H](C)[C@@H](C)Cc2ccc(O)c(OC)c2)ccc1O [MESODIHYDROGUAIARETIC ACID] | 1.3

System: Jonesia denitrificans
Experiment: Antibacterial activity against Listeria denitrificans JCM 11481 after 24 hrs by 2 fold dilution method
Type: functional
Conditions: JCM 11481, 24 h

Compound | MIC [µM]
COc1cc(CC[C@H](C)Cc2ccc(O)c(OC)c2)ccc1O | 1560 (≈ 494 µg/mL)
COc1cc(CC[C@@H](C)Cc2ccc(O)c(OC)c2)ccc1O | 1560 (≈ 494 µg/mL)
COc1cc(/C=C/[C@H](C)Cc2ccc(O)c(OC)c2)ccc1O | 3130 (≈ 984 µg/mL)
COc1cc(/C=C/[C@@H](C)Cc2ccc(O)c(OC)c2)ccc1O | 3130 (≈ 984 µg/mL)
COc1cc(C[C@H](C)[C@@H](C)Cc2ccc(O)c(OC)c2)ccc1O | 390 (≈ 129 µg/mL)
COc1cc(C[C@@H](C)[C@H](C)Cc2ccc(O)c(OC)c2)ccc1O [(-)-DIHYDROGUAIARETICACID] | 390 (≈ 129 µg/mL)
COc1cc(C[C@@H](C)[C@@H](C)Cc2ccc(O)c(OC)c2)ccc1O [MESODIHYDROGUAIARETIC ACID] | 1560 (≈ 515 µg/mL)

System: Salmonella enterica
Experiment: Antibacterial activity against Salmonella choleraesuis subsp. choleraesuis JCM 6977 after 24 hrs by 2 fold dilution method
Type: functional
Conditions: JCM 6977, 24 h

Compound | MIC [µM]
COc1cc(CC[C@@H](C)Cc2ccc(O)c(OC)c2)ccc1O | 6250 (≈ 1980 µg/mL)
COc1cc(C[C@H](C)[C@@H](C)Cc2ccc(O)c(OC)c2)ccc1O | 3130 (≈ 1030 µg/mL)

System: not listed separately
Experiment: Antifungal activity against Bipolaris oryzae assessed as mycelial colony growth levels at 0.25 mM after 3 days by caliper analysis
Type: functional
Conditions: not given

Compound | Activity [%]
COc1cc(CC[C@H](C)Cc2ccc(O)c(OC)c2)ccc1O | 46.4
COc1cc(CC[C@@H](C)Cc2ccc(O)c(OC)c2)ccc1O | 47.2
COc1cc(/C=C/[C@H](C)Cc2ccc(O)c(OC)c2)ccc1O | 66.4
COc1cc(/C=C/[C@@H](C)Cc2ccc(O)c(OC)c2)ccc1O | 57.6
COc1cc(C[C@H](C)[C@@H](C)Cc2ccc(O)c(OC)c2)ccc1O | 49.9
COc1cc(C[C@@H](C)[C@H](C)Cc2ccc(O)c(OC)c2)ccc1O [(-)-DIHYDROGUAIARETICACID] | 49.9
COc1cc(C[C@@H](C)[C@@H](C)Cc2ccc(O)c(OC)c2)ccc1O [MESODIHYDROGUAIARETIC ACID] | 53.7

System: Colletotrichum lagenaria
Experiment: Antifungal activity against Colletotrichum lagenarium assessed as mycelial colony growth levels at 0.25 mM after 5 days by caliper analysis
Type: functional
Conditions: not given

Compound | Activity [%]
COc1cc(CC[C@H](C)Cc2ccc(O)c(OC)c2)ccc1O | 43.1
COc1cc(CC[C@@H](C)Cc2ccc(O)c(OC)c2)ccc1O | 39.4
COc1cc(/C=C/[C@H](C)Cc2ccc(O)c(OC)c2)ccc1O | 49.4
COc1cc(/C=C/[C@@H](C)Cc2ccc(O)c(OC)c2)ccc1O | 67.8
COc1cc(C[C@H](C)[C@@H](C)Cc2ccc(O)c(OC)c2)ccc1O | 20.1
COc1cc(C[C@@H](C)[C@H](C)Cc2ccc(O)c(OC)c2)ccc1O [(-)-DIHYDROGUAIARETICACID] | 33.8
COc1cc(C[C@@H](C)[C@@H](C)Cc2ccc(O)c(OC)c2)ccc1O [MESODIHYDROGUAIARETIC ACID] | 26

System: not listed separately
Experiment: Cytotoxicity against fall armyworm Sf9 cells assessed as reduction in cell viability after 48 hrs by WST-8 reduction assay
Type: cell-based
Conditions: Spodoptera frugiperda, Sf9, 48 h

Compound | IC50 [µM]
COc1cc(CC[C@H](C)Cc2ccc(O)c(OC)c2)ccc1O | 12
COc1cc(CC[C@@H](C)Cc2ccc(O)c(OC)c2)ccc1O | 25
COc1cc(/C=C/[C@H](C)Cc2ccc(O)c(OC)c2)ccc1O | 32
COc1cc(/C=C/[C@@H](C)Cc2ccc(O)c(OC)c2)ccc1O | 30
COc1cc(C[C@H](C)[C@@H](C)Cc2ccc(O)c(OC)c2)ccc1O | 18
COc1cc(C[C@@H](C)[C@H](C)Cc2ccc(O)c(OC)c2)ccc1O [(-)-DIHYDROGUAIARETICACID] | 29
COc1cc(C[C@@H](C)[C@@H](C)Cc2ccc(O)c(OC)c2)ccc1O [MESODIHYDROGUAIARETIC ACID] | 17

System: Lolium multiflorum
Experiment: Growth inhibition of Italian ryegrass assessed as reduction in root growth at 1 mM after 5 days
Type: functional
Conditions: 120 h, read-out: GI

Compound | inhibition of growth at 1000 µM [%]
COc1cc(CC[C@H](C)Cc2ccc(O)c(OC)c2)ccc1O | 13.3
COc1cc(CC[C@@H](C)Cc2ccc(O)c(OC)c2)ccc1O | -7.01
COc1cc(/C=C/[C@H](C)Cc2ccc(O)c(OC)c2)ccc1O | 11.5
COc1cc(/C=C/[C@@H](C)Cc2ccc(O)c(OC)c2)ccc1O | 14.8
COc1cc(C[C@H](C)[C@@H](C)Cc2ccc(O)c(OC)c2)ccc1O | 51.9
COc1cc(C[C@@H](C)[C@H](C)Cc2ccc(O)c(OC)c2)ccc1O [(-)-DIHYDROGUAIARETICACID] | 18.4
COc1cc(C[C@@H](C)[C@@H](C)Cc2ccc(O)c(OC)c2)ccc1O [MESODIHYDROGUAIARETIC ACID] | 68.8

System: Lolium multiflorum
Experiment: Growth inhibition of Italian ryegrass assessed as reduction in shoot growth at 1 mM after 5 days
Type: functional
Conditions: 120 h, read-out: GI

Compound | inhibition of growth at 1000 µM [%]
COc1cc(CC[C@H](C)Cc2ccc(O)c(OC)c2)ccc1O | 19.9
COc1cc(CC[C@@H](C)Cc2ccc(O)c(OC)c2)ccc1O | 2.2
COc1cc(/C=C/[C@H](C)Cc2ccc(O)c(OC)c2)ccc1O | 14.8
COc1cc(/C=C/[C@@H](C)Cc2ccc(O)c(OC)c2)ccc1O | 5.2
COc1cc(C[C@H](C)[C@@H](C)Cc2ccc(O)c(OC)c2)ccc1O | 17.8
COc1cc(C[C@@H](C)[C@H](C)Cc2ccc(O)c(OC)c2)ccc1O [(-)-DIHYDROGUAIARETICACID] | 14.9
COc1cc(C[C@@H](C)[C@@H](C)Cc2ccc(O)c(OC)c2)ccc1O [MESODIHYDROGUAIARETIC ACID] | 20.9

System: not listed separately
Experiment: Selectivity index, ratio of IC50 for fall armyworm Sf9 cells to IC50 for Cytotoxicity against human HL60 cells
Type: toxicity, cell-based
Conditions: fall armyworm and human, read-out: Ratio IC50

Compound | selectivity ratio
COc1cc(CC[C@H](C)Cc2ccc(O)c(OC)c2)ccc1O | 2
COc1cc(C[C@H](C)[C@@H](C)Cc2ccc(O)c(OC)c2)ccc1O | 1.3
COc1cc(C[C@@H](C)[C@@H](C)Cc2ccc(O)c(OC)c2)ccc1O [MESODIHYDROGUAIARETIC ACID] | 1.3

System: Alternaria alternata
Experiment: Antifungal activity against Alternaria alternata assessed as mycelial colony growth at 0.25 mM after 3 days by caliper analysis
Type: functional
Conditions: not given

Compound | Activity [%]
COc1cc(CC[C@H](C)Cc2ccc(O)c(OC)c2)ccc1O | 44.4
COc1cc(CC[C@@H](C)Cc2ccc(O)c(OC)c2)ccc1O | 32.3
COc1cc(/C=C/[C@H](C)Cc2ccc(O)c(OC)c2)ccc1O | 66
COc1cc(/C=C/[C@@H](C)Cc2ccc(O)c(OC)c2)ccc1O | 43.3
COc1cc(C[C@H](C)[C@@H](C)Cc2ccc(O)c(OC)c2)ccc1O | 38
COc1cc(C[C@@H](C)[C@H](C)Cc2ccc(O)c(OC)c2)ccc1O [(-)-DIHYDROGUAIARETICACID] | 32
COc1cc(C[C@@H](C)[C@@H](C)Cc2ccc(O)c(OC)c2)ccc1O [MESODIHYDROGUAIARETIC ACID] | 30
